Laboratory results taken from the NIST ThermoML archive (doi:10.1007/s10765-010-0737-5).
Numbers after ± are expanded uncertainties.

Assay: xn = mol fraction of the nth substance listed
Conditions: Liquid; for viscosity: 101 kPa, Capillary tube (Ostwald / Ubbelohde) method; for mass density: 101.3 kPa

CCCCCl [1-chlorobutane] + CC(C)OC(C)C
Conditions | mass density [kg/m3] | viscosity [mPa·s]
283.15 K, x1 = 0.0466 | 740.095 ± 0.9 | 0.3698 ± 0.004
283.15 K, x1 = 0.0991 | 747.139 ± 0.89 | 0.3755 ± 0.0041
283.15 K, x1 = 0.1918 | 759.833 ± 0.86 | 0.3863 ± 0.0042
283.15 K, x1 = 0.3234 | 778.726 ± 0.83 | 0.4028 ± 0.0043
283.15 K, x1 = 0.4199 | 793.339 ± 0.8 | 0.4153 ± 0.0044
283.15 K, x1 = 0.516 | 808.586 ± 0.77 | 0.4283 ± 0.0045
283.15 K, x1 = 0.623 | 826.434 ± 0.73 | 0.4433 ± 0.0047
283.15 K, x1 = 0.7154 | 842.63 ± 0.7 | 0.4568 ± 0.0048
283.15 K, x1 = 0.8157 | 861.003 ± 0.66 | 0.4715 ± 0.0049
283.15 K, x1 = 0.9098 | 879.099 ± 0.62 | 0.4857 ± 0.005
283.15 K, x1 = 0.9559 | 888.28 ± 0.6 | 0.4927 ± 0.0051
283.15 K, x1 = 1 | 897.339 ± 0.59 | 0.4993 ± 0.0051
288.15 K, x1 = 0.0466 | 734.99 ± 0.92 | 0.3535 ± 0.0039
288.15 K, x1 = 0.0991 | 741.966 ± 0.9 | 0.359 ± 0.0039
288.15 K, x1 = 0.1918 | 754.629 ± 0.88 | 0.3689 ± 0.004
288.15 K, x1 = 0.3234 | 773.471 ± 0.84 | 0.3838 ± 0.0042
288.15 K, x1 = 0.4199 | 788.055 ± 0.81 | 0.3951 ± 0.0042
288.15 K, x1 = 0.516 | 803.274 ± 0.78 | 0.4068 ± 0.0043
288.15 K, x1 = 0.623 | 821.073 ± 0.74 | 0.4202 ± 0.0045
288.15 K, x1 = 0.7154 | 837.246 ± 0.71 | 0.4321 ± 0.0046
288.15 K, x1 = 0.8157 | 855.588 ± 0.67 | 0.4453 ± 0.0047
288.15 K, x1 = 0.9098 | 873.635 ± 0.63 | 0.4579 ± 0.0048
288.15 K, x1 = 0.9559 | 882.81 ± 0.61 | 0.4641 ± 0.0048
288.15 K, x1 = 1 | 891.855 ± 0.6 | 0.4701 ± 0.0049
293.15 K, x1 = 0.0466 | 729.792 ± 0.93 | 0.3385 ± 0.0038
293.15 K, x1 = 0.0991 | 736.75 ± 0.91 | 0.3435 ± 0.0038
293.15 K, x1 = 0.1918 | 749.383 ± 0.89 | 0.3528 ± 0.0039
293.15 K, x1 = 0.3234 | 768.192 ± 0.85 | 0.3662 ± 0.004
293.15 K, x1 = 0.4199 | 782.731 ± 0.82 | 0.3763 ± 0.0041
293.15 K, x1 = 0.516 | 797.924 ± 0.79 | 0.3868 ± 0.0042
293.15 K, x1 = 0.623 | 815.68 ± 0.75 | 0.3988 ± 0.0043
293.15 K, x1 = 0.7154 | 831.821 ± 0.72 | 0.4094 ± 0.0044
293.15 K, x1 = 0.8157 | 850.133 ± 0.68 | 0.4212 ± 0.0045
293.15 K, x1 = 0.9098 | 868.142 ± 0.65 | 0.4323 ± 0.0046
293.15 K, x1 = 0.9559 | 877.303 ± 0.63 | 0.4379 ± 0.0046
293.15 K, x1 = 1 | 886.335 ± 0.61 | 0.4433 ± 0.0047
298.15 K, x1 = 0.0466 | 724.56 ± 0.94 | 0.3222 ± 0.0036
298.15 K, x1 = 0.0991 | 731.492 ± 0.92 | 0.3273 ± 0.0037
298.15 K, x1 = 0.1918 | 744.091 ± 0.9 | 0.336 ± 0.0037
298.15 K, x1 = 0.3234 | 762.854 ± 0.86 | 0.3487 ± 0.0039
298.15 K, x1 = 0.4199 | 777.351 ± 0.83 | 0.3583 ± 0.0039
298.15 K, x1 = 0.516 | 792.506 ± 0.8 | 0.3682 ± 0.004
298.15 K, x1 = 0.623 | 810.177 ± 0.76 | 0.3793 ± 0.0041
298.15 K, x1 = 0.7154 | 826.321 ± 0.73 | 0.3893 ± 0.0042
298.15 K, x1 = 0.8157 | 844.587 ± 0.69 | 0.4003 ± 0.0043
298.15 K, x1 = 0.9098 | 862.556 ± 0.66 | 0.411 ± 0.0044
298.15 K, x1 = 0.9559 | 871.691 ± 0.64 | 0.4162 ± 0.0044
298.15 K, x1 = 1 | 880.705 ± 0.62 | 0.4214 ± 0.0045
303.15 K, x1 = 0.0466 | 719.283 ± 0.95 | 0.3048 ± 0.0035
303.15 K, x1 = 0.0991 | 726.204 ± 0.93 | 0.3098 ± 0.0035
303.15 K, x1 = 0.1918 | 738.777 ± 0.91 | 0.3188 ± 0.0036
303.15 K, x1 = 0.3234 | 757.526 ± 0.87 | 0.3318 ± 0.0037
303.15 K, x1 = 0.4199 | 771.984 ± 0.84 | 0.3415 ± 0.0038
303.15 K, x1 = 0.516 | 787.119 ± 0.81 | 0.3514 ± 0.0039
303.15 K, x1 = 0.623 | 804.761 ± 0.78 | 0.3628 ± 0.004
303.15 K, x1 = 0.7154 | 820.882 ± 0.74 | 0.3726 ± 0.0041
303.15 K, x1 = 0.8157 | 839.124 ± 0.7 | 0.3837 ± 0.0042
303.15 K, x1 = 0.9098 | 857.076 ± 0.67 | 0.3944 ± 0.0042
303.15 K, x1 = 0.9559 | 866.204 ± 0.65 | 0.3998 ± 0.0043
303.15 K, x1 = 1 | 875.204 ± 0.63 | 0.405 ± 0.0043
308.15 K, x1 = 0.0466 | 713.967 ± 0.96 | 0.2903 ± 0.0034
308.15 K, x1 = 0.0991 | 720.87 ± 0.94 | 0.2953 ± 0.0034
308.15 K, x1 = 0.1918 | 733.414 ± 0.92 | 0.3043 ± 0.0035
308.15 K, x1 = 0.3234 | 752.126 ± 0.88 | 0.317 ± 0.0036
308.15 K, x1 = 0.4199 | 766.553 ± 0.85 | 0.3266 ± 0.0037
308.15 K, x1 = 0.516 | 781.656 ± 0.82 | 0.3362 ± 0.0037
308.15 K, x1 = 0.623 | 799.266 ± 0.79 | 0.3472 ± 0.0038
308.15 K, x1 = 0.7154 | 815.358 ± 0.75 | 0.3569 ± 0.0039
308.15 K, x1 = 0.8157 | 833.567 ± 0.71 | 0.3677 ± 0.004
308.15 K, x1 = 0.9098 | 851.486 ± 0.68 | 0.3781 ± 0.0041
308.15 K, x1 = 0.9559 | 860.595 ± 0.66 | 0.3833 ± 0.0041
308.15 K, x1 = 1 | 869.585 ± 0.64 | 0.3885 ± 0.0042
313.15 K, x1 = 0.0466 | 708.604 ± 0.97 | 0.2765 ± 0.0032
313.15 K, x1 = 0.0991 | 715.486 ± 0.95 | 0.2811 ± 0.0033
313.15 K, x1 = 0.1918 | 728.002 ± 0.93 | 0.2891 ± 0.0033
313.15 K, x1 = 0.3234 | 746.649 ± 0.89 | 0.3005 ± 0.0034
313.15 K, x1 = 0.4199 | 761.063 ± 0.86 | 0.309 ± 0.0035
313.15 K, x1 = 0.516 | 776.136 ± 0.83 | 0.3175 ± 0.0036
313.15 K, x1 = 0.623 | 793.704 ± 0.8 | 0.3274 ± 0.0037
313.15 K, x1 = 0.7154 | 809.769 ± 0.76 | 0.3359 ± 0.0037
313.15 K, x1 = 0.8157 | 827.935 ± 0.73 | 0.3456 ± 0.0038
313.15 K, x1 = 0.9098 | 845.816 ± 0.69 | 0.3548 ± 0.0039
313.15 K, x1 = 0.9559 | 854.913 ± 0.67 | 0.3594 ± 0.0039
313.15 K, x1 = 1 | 863.882 ± 0.65 | 0.3642 ± 0.004
